Reference: patent US20250170107A1, “IMIDAZOPYRIDINE INHIBITORS OF TYROSINE KINASE” (BridGene Biosciences. Inc., priority 2022, published 2025)

Key:
[1] = test system: MV4-11; assay: Cell viability assay (CellTiter-Glo), FLT3 cell-based assay; details: MV4-11 cells, 72 hr at 37° C., 0.1% DMSO
Procedure: Cell viability assay was performed based on the following brief procedures. Cells were plated at the density of 5K/well with volume of 180 μL in 96-well white plate and clear bottom plates. 20 μL of veh. or compound was added at proper concentration to the well. The final volume is 200 μL, with final conc. of DMSO=0.1%, 11 points, triplicates. The cells were then treated at 37° C. in the TC incubator for 72 hr. Equal volume (200 μL) of CellTiter-Glo reagent (Promega) was added to the well and protect from light at room temperature for 15 min. The chemiluminescence was measured with EnSight (Perkin Elmer). GraphPad Prism non-linear regression, Log[inhibitor] response with four parameters were used to calculate GI50.

[2] = biological target: T1, FLT3 (Homo sapiens, UniProt P36888); assay: Caliper mobility shift kinase inhibition assay, recombinant FLT3; type: biochemical; details: recombinant FLT-3 0.1 nM, ATP 95 μM, incubation 3 hr, room temperature
T1 construct: purchased ThermoFisher PV3182
T1 sequence (P36888 27-993): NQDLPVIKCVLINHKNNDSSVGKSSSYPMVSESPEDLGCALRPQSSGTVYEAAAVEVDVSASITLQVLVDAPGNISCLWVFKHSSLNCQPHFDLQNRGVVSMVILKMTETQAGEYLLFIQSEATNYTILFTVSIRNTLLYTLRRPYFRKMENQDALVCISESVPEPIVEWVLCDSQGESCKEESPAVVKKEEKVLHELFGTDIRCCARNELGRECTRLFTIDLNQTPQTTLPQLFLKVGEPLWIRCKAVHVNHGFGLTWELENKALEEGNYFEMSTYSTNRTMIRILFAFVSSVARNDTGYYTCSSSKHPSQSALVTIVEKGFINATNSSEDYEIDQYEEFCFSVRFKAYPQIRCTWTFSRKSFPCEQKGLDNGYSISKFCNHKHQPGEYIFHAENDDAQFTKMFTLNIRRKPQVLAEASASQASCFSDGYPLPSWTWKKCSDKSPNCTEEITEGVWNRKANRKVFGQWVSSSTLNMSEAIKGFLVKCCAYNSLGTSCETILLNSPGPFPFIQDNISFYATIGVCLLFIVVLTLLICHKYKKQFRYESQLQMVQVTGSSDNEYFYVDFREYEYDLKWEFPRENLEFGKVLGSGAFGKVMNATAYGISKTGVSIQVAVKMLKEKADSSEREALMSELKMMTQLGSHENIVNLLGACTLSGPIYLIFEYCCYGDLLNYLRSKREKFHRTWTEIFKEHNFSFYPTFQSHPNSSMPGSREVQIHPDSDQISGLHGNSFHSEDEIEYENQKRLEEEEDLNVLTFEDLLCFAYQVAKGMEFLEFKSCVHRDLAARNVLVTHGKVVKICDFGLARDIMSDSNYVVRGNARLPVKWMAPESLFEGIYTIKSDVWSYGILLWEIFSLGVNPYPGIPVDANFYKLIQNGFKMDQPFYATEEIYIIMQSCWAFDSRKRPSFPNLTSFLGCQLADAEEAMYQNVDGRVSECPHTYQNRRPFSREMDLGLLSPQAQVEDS
Procedure: Compounds' inhibition of recombinant kinases (FLT3, KIT) was measured using Caliper mobility shift assay, which is based on the difference in capillary electrophoresis mobility of a fluorescent-tagged peptide as a result of a phosphorylation by the kinase under study. Reactions were started by the addition of various concentrations of a compound (originally in DMSO solution) to a kinase solution in assay buffer followed by addition of a mixture of ATP and a fluorescent-tagged peptide substrate in assay buffer. Concentrations of the enzyme, ATP and thepeptide were pre-optimized so that 15% substrate conversion to ensure initial velocity measurements. After incubation for 3 hours at room temperature, the kinase reaction was quenched by the addition of a concentrated EDTA solution before analysis on a LabChip EZ Reader II to yield percentage inhibition by comparing to the DMSO control. Table 2 below summarizes the assay conditions for the characterization of the kinase inhibition properties of the disclosed compounds.

[3] = biological target: T2, KIT (Homo sapiens, UniProt P10721); assay: Caliper mobility shift kinase inhibition assay, recombinant KIT; type: biochemical; details: recombinant KIT 0.9 nM, ATP 400 μM, incubation 17 hr (Table 2)
T2 construct: purchased BPS 40250
T2 sequence (P10721 26-976): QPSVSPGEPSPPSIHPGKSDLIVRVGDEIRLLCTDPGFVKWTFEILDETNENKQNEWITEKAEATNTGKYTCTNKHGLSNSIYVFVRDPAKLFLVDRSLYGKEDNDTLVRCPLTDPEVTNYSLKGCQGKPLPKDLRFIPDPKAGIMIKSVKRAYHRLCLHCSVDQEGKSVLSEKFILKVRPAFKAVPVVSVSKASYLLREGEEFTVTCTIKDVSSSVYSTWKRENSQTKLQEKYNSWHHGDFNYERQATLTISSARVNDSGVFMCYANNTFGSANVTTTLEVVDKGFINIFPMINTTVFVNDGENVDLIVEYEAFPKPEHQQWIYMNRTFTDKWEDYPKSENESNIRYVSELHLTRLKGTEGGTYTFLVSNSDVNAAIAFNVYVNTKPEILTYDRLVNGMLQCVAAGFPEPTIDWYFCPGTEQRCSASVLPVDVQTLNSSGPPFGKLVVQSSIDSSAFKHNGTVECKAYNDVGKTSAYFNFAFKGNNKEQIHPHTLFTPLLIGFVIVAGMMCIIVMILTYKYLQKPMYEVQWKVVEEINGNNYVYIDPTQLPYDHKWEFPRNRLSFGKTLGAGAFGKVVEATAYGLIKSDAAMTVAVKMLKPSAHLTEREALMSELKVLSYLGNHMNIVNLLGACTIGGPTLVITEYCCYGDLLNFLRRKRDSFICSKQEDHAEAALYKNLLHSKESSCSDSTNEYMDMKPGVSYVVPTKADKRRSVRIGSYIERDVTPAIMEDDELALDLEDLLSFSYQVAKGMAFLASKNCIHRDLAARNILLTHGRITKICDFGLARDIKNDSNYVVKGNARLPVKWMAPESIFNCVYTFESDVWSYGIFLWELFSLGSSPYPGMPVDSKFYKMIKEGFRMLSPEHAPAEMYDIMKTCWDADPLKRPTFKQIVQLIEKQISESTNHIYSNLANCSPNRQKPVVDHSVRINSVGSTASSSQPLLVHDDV

| Compound | GI50 ([1]; Homo sapiens) [µM] | IC50 [2] [µM] | IC50 [3] [µM] | GI50 [1] [µM] |
| --- | --- | --- | --- | --- |
| C=CC(=O)N1C[C@H](O)C[C@H]1C(=O)NCCn1cnc2cnc(Nc3ncc(-c4ncncc4F)s3)cc21 [Example 21, (2S,4R)-N-[2-[6-[[5-(5-fluoropyrimidin-4-yl)thiazol-2-yl]amino]imidazo[4,5-c]pyridin-1-yl]ethyl]-4-hydroxy-1-prop-2-enoyl-pyrrolidine-2-carboxamide] | 0.01 to 0.1 | 0.001 to 0.01 | 0.01 to 0.1 | – |
| C=CC(=O)N1CCOC[C@H]1C(=O)NCCn1cnc2cnc(Nc3ncc(-c4ncncc4F)s3)cc21 [Example 22, (3S)-N-[2-[6-[[5-(5-fluoropyrimidin-4-yl)thiazol-2-yl]amino]imidazo[4,5-c]pyridin-1-yl]ethyl]-4-prop-2-enoyl-morpholine-3-carboxamide] | < 0.01 | < 0.001 | < 0.001 | – |
| C=CC(=O)N1CC[C@H](O)[C@H]1C(=O)NCCn1cnc2cnc(Nc3ncc(-c4ncccc4F)s3)cc21 [Example 24, (2S,3S)-N-[2-[6-[[5-(3-fluoro-2-pyridyl)thiazol-2-yl]amino]imidazo[4,5-c]pyridin-1-yl]ethyl]-3-hydroxy-1-prop-2-enoyl-pyrrolidine-2-carboxamide] | 0.01 to 0.1 | < 0.001 | < 0.001 | – |
| CN(C)C/C=C/C(=O)N1CC[C@H](O)[C@H]1C(=O)NCCn1cnc2cnc(Nc3ncc(-c4ncccc4F)s3)cc21 [Example 26, (2S,3S)-1-[(E)-4-(dimethylamino)but-2-enoyl]-N-[2-[6-[[5-(3-fluoro-2-pyridyl)thiazol-2-yl]amino]imidazo[4,5-c]pyridin-1-yl]ethyl]-3-hydroxy-pyrrolidine-2-carboxamide] | 0.01 to 0.1 | < 0.001 | < 0.001 | – |
| (2S,3S)-1-(2-fluoroprop-2-enoyl)-N-[2-[6-[[5-(3-fluoro-2-pyridyl)thiazol-2-yl]amino]imidazo[4,5-c]pyridin-1-yl]ethyl]-3-hydroxy-pyrrolidine-2-carboxamide [Example 25] | – | 0.01 to 0.1 | 0.1 to 1 | 0.01 to 0.1 |
| (3S)-4-[(E)-4-(dimethylamino)but-2-enoyl]-N-[2-[6-[[5-(5-fluoropyrimidin-4-yl)thiazol-2-yl]amino]imidazo[4,5-c]pyridin-1-yl]ethyl]morpholine-3-carboxamide [Example 23] | – | < 0.001 | < 0.001 | 0.01 to 0.1 |
